Among the data in patent publication US12440496B2, “Natriuretic peptide receptor a agonists useful for the treatment of cardiometabolic diseases, kidney disease and diabetes” (Merck Sharp & Dohme LLC, priority 2019, dated 2025) are EC50 values, retold here.

For orientation: EC50 means the concentration that produces a half-maximal response. Low values mean a more potent agent, high ones a less potent agent.

The test concerns the target T1, hNPRA (Homo sapiens, UniProt P16066).
T1 construct: expressed in transfected cells
T1 sequence (P16066 33-1061): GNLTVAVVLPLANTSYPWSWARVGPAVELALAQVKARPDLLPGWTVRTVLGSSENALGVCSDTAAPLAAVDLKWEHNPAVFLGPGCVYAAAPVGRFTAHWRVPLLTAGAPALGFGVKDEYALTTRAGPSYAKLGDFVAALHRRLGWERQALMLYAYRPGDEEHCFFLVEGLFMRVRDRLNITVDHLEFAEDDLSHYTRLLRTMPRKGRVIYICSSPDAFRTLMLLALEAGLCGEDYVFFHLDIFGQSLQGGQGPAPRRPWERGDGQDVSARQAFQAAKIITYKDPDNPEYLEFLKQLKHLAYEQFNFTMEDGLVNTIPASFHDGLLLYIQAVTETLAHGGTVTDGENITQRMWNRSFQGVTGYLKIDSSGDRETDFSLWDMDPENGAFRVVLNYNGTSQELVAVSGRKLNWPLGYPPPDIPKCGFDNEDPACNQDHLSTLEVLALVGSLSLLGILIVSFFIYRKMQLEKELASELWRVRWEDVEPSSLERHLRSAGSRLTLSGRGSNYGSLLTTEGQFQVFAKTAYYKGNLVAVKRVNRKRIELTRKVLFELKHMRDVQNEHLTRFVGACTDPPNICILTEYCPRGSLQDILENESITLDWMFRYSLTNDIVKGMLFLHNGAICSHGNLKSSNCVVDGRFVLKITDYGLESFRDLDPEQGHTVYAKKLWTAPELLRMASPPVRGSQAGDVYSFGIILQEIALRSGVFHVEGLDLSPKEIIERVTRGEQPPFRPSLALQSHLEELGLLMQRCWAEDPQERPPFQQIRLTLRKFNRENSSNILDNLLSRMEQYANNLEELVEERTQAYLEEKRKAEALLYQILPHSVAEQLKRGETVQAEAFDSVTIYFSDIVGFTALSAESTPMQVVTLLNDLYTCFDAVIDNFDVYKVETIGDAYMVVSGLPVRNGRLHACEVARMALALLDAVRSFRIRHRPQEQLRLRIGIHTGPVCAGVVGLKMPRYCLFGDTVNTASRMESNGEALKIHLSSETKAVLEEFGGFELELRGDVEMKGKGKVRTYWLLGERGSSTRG
Put plainly: NPRA Functional Cell Assay (cGMP HTRF, NPRA HEK JumpIn stable cells). The conditions noted are these: cGMP production, 1 hour at 37° C., 10-point dose response. The class given is cell-based. The method, boiled down:
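cGMP HTRF read-out after 1 hour compound treatment at 37° C. of human NPRA-expressing HEK JumpIn cells, 1500 cells/well, in buffer with phosphodiesterase inhibitors IBMX and RO20 (100 uM each). Signal converted to [cGMP] by calibration curve; EC50s fitted by 4-parameter logistic; 50 nM h-ANP as positive response.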
In general terms: TR-FRET usually uses a lanthanide donor and a delayed reading to cut background.
In turn, `CC(C)(C)[C@H]1CCc2nc3sc(C(=O)N[C@H](CCN4CCC[C@H]4CO)c4ccc(-c5ccc(=O)[nH]c5)cc4)cc3cc2C1` (racemic) [Example 38, rac-(6S)-6-tert-butyl-N-[rac-(1R)-1-[4-(6-oxo-1H-pyridin-3-yl)phenyl]-3-[rac-(2S)-2-(hydroxymethyl)pyrrolidin-1-ium-1-yl]propyl]-5,6,7,8-tetrahydrothieno[2,3-b]quinoline-2-carboxamide;formate] came in with an EC50 of 582 nM.
Compound `CC(C)(C)[C@H]1CCc2nc3sc(C(=O)N[C@H](CCN[C@H]4C[C@@H](O)[C@@H](O)C4)c4ccc(-c5ccc(=O)[nH]c5)cc4)cc3cc2C1` (racemic) [Example 39, [rac-(3R,4S)-3,4-dihydroxycyclopentyl]-[rac-(3R)-3-[4-(6-oxo-1H-pyridin-3-yl)phenyl]-3-[[rac-(6S)-6-tert-butyl-5,6,7,8-tetrahydrothieno[2,3-b]quinoline-2-carbonyl]amino]propyl] ammonium;formate] returned an EC50 of 655 nM.
On to `CC(C)(C)[C@H]1CCc2nc3sc(C(=O)N[C@H](CCN4CCC5(CC4)CNC(=O)O5)c4ccc(-c5ccc(=O)[nH]c5)cc4)cc3cc2C1` (racemic) [Example 40, rac-(6S)-6-tert-butyl-N-[rac-(1R)-3-(2-oxo-1-oxa-3-aza-8-azoniaspiro[4.5]decan-8-yl)-1-[4-(6-oxo-1H-pyridin-3-yl)phenyl]propyl]-5,6,7,8-tetrahydrothieno[2,3-b]quinoline-2-carboxamide;formate], for which the EC50 worked out at 655 nM.
`CC(C)(C)[C@H]1CCc2nc3sc(C(=O)N[C@H](CCN4CCC(O)C4)c4ccc(-c5ccc(=O)[nH]c5)cc4)cc3cc2C1` (mixture of isomers) [Example 41, rac-(6S)-6-tert-butyl-N-[rac-(1R)-3-(3-hydroxypyrrolidin-1-ium-1-yl)-1-[4-(6-oxo-1H-pyridin-3-yl)phenyl]propyl]-5,6,7,8-tetrahydrothieno[2,3-b]quinoline-2-carboxamide;formate] registered an EC50 of 656 nM. This EC50 and that of the compound before are within 1.5-fold of each other.
For `CNCC[C@@H](NC(=O)c1cc2cc3c(nc2s1)CC[C@H](C(C)(C)C)C3)c1ccc(-c2ccc(=O)[nH]c2)cc1` (racemic) [Example 42, rac-(6S)-6-tert-butyl-N-[rac-(1R)-3-(methylamino)-1-[4-(6-oxo-1H-pyridin-3-yl)phenyl]propyl]-5,6,7,8-tetrahydrothieno[2,3-b]quinoline-2-carboxamide], the EC50 amounted to 658 nM.
For `COC[C@@H]1CCCN1CC[C@@H](NC(=O)c1cc2cc3c(nc2s1)CC[C@H](C(C)(C)C)C3)c1ccc(-c2ccc(=O)[nH]c2)cc1` (racemic) [Example 43, rac-(6S)-6-tert-butyl-N-[rac-(1R)-1-[4-(6-oxo-1H-pyridin-3-yl)phenyl]-3-[rac-(2S)-2-(methoxymethyl)pyrrolidin-1-yl]propyl]-5,6,7,8-tetrahydrothieno[2,3-b]quinoline-2-carboxamide] the value was 663 nM; for `CC(C)(C)[C@H]1CCc2nc3sc(C(=O)N[C@H](CCN4CCC(C(=O)O)CC4)c4ccc(-c5ccc(=O)[nH]c5)cc4)cc3cc2C1` (racemic) [Example 44, 1-[rac-(3R)-3-[4-(6-oxo-1H-pyridin-3-yl)phenyl]-3-[rac-(6S)-6-tert-butyl-5,6,7,8-tetrahydrothieno[2,3-b]quinoline-2-carbonyl]amino]propyl] piperidin-1-ium-4-carboxylic acid;formate], 665 nM.
In turn, `CC1(O)CCN(CC[C@@H](NC(=O)c2cc3cc4c(nc3s2)CC[C@H](C(C)(C)C)C4)c2ccc(-c3ccc(=O)[nH]c3)cc2)CC1` (racemic) [Example 45, rac-(6S)-6-tert-butyl-N-[rac-(1R)-3-(4-hydroxy-4-methyl-piperidin-1-ium-1-yl)-1-[4-(6-oxo-1H-pyridin-3-yl)phenyl]propyl]-5,6,7,8-tetrahydrothieno[2,3-b]quinoline-2-carboxamide;formate] displayed an EC50 of 673 nM.
`CC1(CN)CN(CC[C@@H](NC(=O)c2cc3cc4c(nc3s2)CC[C@H](C(C)(C)C)C4)c2ccc(-c3ccc(=O)[nH]c3)cc2)C1` (racemic) [Example 46, [3-methyl-1-[rac-(3R)-3-[4-(6-oxo-1H-pyridin-3-yl)phenyl]-3-[[rac-(6S)-6-tert-butyl-5,6,7,8-tetrahydrothieno[2,3-b]quinoline-2-carbonyl]amino]propyl]azetidin-3-yl]methylammonium;formate] came in with an EC50 of 673 nM.
For `CC(C)(C)[C@H]1CCc2nc3sc(C(=O)N[C@H](CCN4CCCC5(CC5)C4)c4ccc(-c5ccc(=O)[nH]c5)cc4)cc3cc2C1` (racemic) [Example 47, rac-(6S)-6-tert-butyl-N-[rac-(1R)-3-(5-azoniaspiro[2.5]octan-5-yl)-1-[4-(6-oxo-1H-pyridin-3-yl)phenyl]propyl]-5,6,7,8-tetrahydrothieno[2,3-b]quinoline-2-carboxamide;formate] the value was 674 nM; for `CC(C)(C)[C@H]1CCc2nc3sc(C(=O)N[C@H](CCN4CC(O)C4)c4ccc(-c5ccc(=O)[nH]c5)cc4)cc3cc2C1` (racemic) [Example 48, rac-(6S)-6-tert-butyl-N-[rac-(1R)-3-(3-hydroxyazetidin-1-ium-1-yl)-1-[4-(6-oxo-1H-pyridin-3-yl)phenyl]propyl]-5,6,7,8-tetrahydrothieno[2,3-b]quinoline-2-carboxamide;formate], 679 nM.
For `CC(C)(C)[C@H]1CCc2nc3sc(C(=O)N[C@H](CCNCCO)c4ccc(-c5ccc(=O)[nH]c5)cc4)cc3cc2C1` (racemic) [Example 49, 2-hydroxyethyl-[rac-(3R)-3-[4-(6-oxo-1H-pyridin-3-yl)phenyl]-3-[[rac-(6S)-6-tert-butyl-5,6,7,8-tetrahydrothieno[2,3-b]quinoline-2-carbonyl]amino}propyl] ammonium;formate], the half-maximal effective concentration (EC50) is 682 nM.
To `CN(CC[C@@H](NC(=O)c1cc2cc3c(nc2s1)CC[C@H](C(C)(C)C)C3)c1ccc(-c2ccc(=O)[nH]c2)cc1)C1CCCC1` (racemic) [Example 50, cyclopentyl-methyl-[rac-(3R)-3-[4-(6-oxo-1H-pyridin-3-yl)phenyl]-3-[rac-(6S)-6-tert-butyl-5,6,7,8-tetrahydrothieno[2,3-b]quinoline-2-carbonyl]amino]propyl] ammonium;formate] belongs 696 nM.
To `CC(C)(C)[C@H]1CCc2nc3sc(C(=O)N[C@H](CCN4C[C@@H](O)[C@H](O)C4)c4ccc(-c5ccc(=O)[nH]c5)cc4)cc3cc2C1` (racemic) [Example 51, rac-(6S)-6-tert-butyl-N-[rac-(1R)-1-[4-(6-oxo-1H-pyridin-3-yl)phenyl]-3-[rac-(3R,4R)-3,4-dihydroxypyrrolidin-1-ium-1-yl]propyl]-5,6,7,8-tetrahydrothieno[2,3-b]quinoline-2-carboxamide;formate] belongs 705 nM; to `CC(C)(C)[C@H]1CCc2nc3sc(C(=O)N[C@H](CCNC4CCCC4)c4ccc(-c5ccc(=O)[nH]c5)cc4)cc3cc2C1` (racemic) [Example 52, cyclopentyl-[rac-(3R)-3-[4-(6-oxo-1H-pyridin-3-yl)phenyl]-3-[[rac-(6S)-6-tert-butyl-5,6,7,8-tetrahydrothieno[2,3-b]quinoline-2-carbonyl]amino]propyl] ammonium;formate], 729 nM.
To `CC(C)(C)[C@H]1CCc2nc3sc(C(=O)N[C@H](CCN4CC5CC4CO5)c4ccc(-c5ccc(=O)[nH]c5)cc4)cc3cc2C1` (mixture of isomers) [Example 53, rac-(6S)-6-tert-butyl-N-[rac-(1R)-3-(2-oxa-5-azoniabicyclo[2.2. 1]heptan-5-yl)-1-[4-(6-oxo-1H-pyridin-3-yl)phenyl]propyl]-5,6,7,8-tetrahydrothieno[2,3-b]quinoline-2-carboxamide;formate] belongs 755 nM; to `CC(C)(C)[C@H]1CCc2nc3sc(C(=O)N[C@H](CCNC4CCNC(=O)C4)c4ccc(-c5ccc(=O)[nH]c5)cc4)cc3cc2C1` (mixture of isomers) [Example 54, (2-oxo-4-piperidyl)-[rac-(3R)-3-[4-(6-oxo-1H-pyridin-3-yl)phenyl]-3-[rac-(6S)-6-tert-butyl-5,6,7,8-tetrahydrothieno[2,3-b]quinoline-2-carbonyl]amino]propyl] ammonium;formate], 758 nM.
